Test: lactamisation (head-to-tail or side-chain-to-tail) of unprotected peptide acyl azide (from hydrazide, 20 equiv NaNO2, pH 3, -15 C, then NaHCO3 to pH ~7), MeCN cosolvent
Conditions: aq phosphate buffer (6 M GdmCl) diluted with 2 vol 50% MeCN/water, 2.2 mM, 2 steps

CC(C)C[C@@H]1NC(=O)[C@H](CCCN)NC(=O)[C@H](C(C)C)NC(=O)[C@H](Cc2ccc(O)cc2)NC(=O)[C@H](CCC(N)=O)NC(=O)[C@H](CC(N)=O)NC(=O)[C@@H](Cc2ccccc2)NC(=O)[C@H](Cc2ccccc2)NC(=O)[C@@H]2CCCN2C(=O)[C@@H](Cc2ccccc2)NC1=O [H-D-Phe-Pro-Phe-D-Phe-Asn-Gln-Tyr-Val-Orn-Leu-N3]
ring closure, conversion by HPLC (from CC(C)C[C@H](NC(=O)[C@H](CCCN)NC(=O)[C@@H](NC(=O)[C@H](Cc1ccc(O)cc1)NC(=O)[C@H](CCC(N)=O)NC(=O)[C@H](CC(N)=O)NC(=O)[C@@H](Cc1ccccc1)NC(=O)[C@H](Cc1ccccc1)NC(=O)[C@@H]1CCCN1C(=O)[C@H](N)Cc1ccccc1)C(C)C)C(=O)N=[N+]=[N-], 30-membered ring, 0.33 h): 95%

C[C@@H]1NC(=O)CN(C)C(=O)[C@H](C)NC(=O)[C@H](C)NC(=O)CN(C)C(=O)[C@H](C)NC(=O)[C@H](C)NC1=O [H-Ala-Sar-Ala-Ala-Sar-Ala-Ala-N3]
ring closure, conversion by HPLC (from C[C@H](N)C(=O)N(C)CC(=O)N[C@@H](C)C(=O)N[C@@H](C)C(=O)N(C)CC(=O)N[C@@H](C)C(=O)N[C@@H](C)C(=O)N=[N+]=[N-], 21-membered ring, 0.35 h): 96%

CC(=O)N[C@@H](Cc1ccccc1)C(=O)N[C@H]1CCCNC(=O)[C@H](CCCNC(=N)N)NC(=O)[C@H](Cc2c[nH]c3ccccc23)NC(=O)[C@@H](Cc2ccc(O)cc2)NC(=O)[C@@H]2CCCN2C1=O [Ac-Phe-Orn(cyclises via side chain)-Pro-D-Tyr-Trp-Arg-N3]
ring closure, conversion by HPLC (from CC(=O)N[C@@H](Cc1ccccc1)C(=O)N[C@@H](CCCN)C(=O)N1CCC[C@H]1C(=O)N[C@H](Cc1ccc(O)cc1)C(=O)N[C@@H](Cc1c[nH]c2ccccc12)C(=O)N[C@@H](CCCNC(=N)N)C(=O)N=[N+]=[N-], 18-membered ring, 0.35 h): 95%

C=CC[C@@H]1NC(=O)[C@H](CC(C)C)NC(=O)[C@H](CC(C)C)NC(=O)[C@H](C)NC(=O)[C@H](Cc2ccc(O)c([N+](=O)[O-])c2)NC(=O)[C@H](CC(C)C)N(C)C(=O)[C@H](Cc2cn(C(C)(C)C=C)c3ccccc23)NC1=O
ring closure, conversion by HPLC (from C=CC[C@H](NC(=O)[C@H](CC(C)C)NC(=O)[C@H](CC(C)C)NC(=O)[C@H](C)NC(=O)[C@H](Cc1ccc(O)c([N+](=O)[O-])c1)NC(=O)[C@H](CC(C)C)N(C)C(=O)[C@@H](N)Cc1cn(C(C)(C)C=C)c2ccccc12)C(=O)N=[N+]=[N-], 21-membered ring, 0.27 h): < 50%

C=CC[C@@H]1NC(=O)[C@H](CC(C)C)NC(=O)[C@H](CC(C)C)N(C)C(=O)[C@H](C)NC(=O)[C@H](Cc2ccc(O)c([N+](=O)[O-])c2)NC(=O)[C@H](CC(C)C)N(C)C(=O)[C@H](Cc2cn(C)c3ccccc23)NC1=O [H-Leu-allylGly-Trp(1-Me)-N-Me-Leu-Tyr(3-NO2)-Ala-N-Me-Leu-N3]
ring closure, conversion by HPLC (from C=CC[C@H](NC(=O)[C@@H](N)CC(C)C)C(=O)N[C@@H](Cc1cn(C)c2ccccc12)C(=O)N(C)[C@@H](CC(C)C)C(=O)N[C@@H](Cc1ccc(O)c([N+](=O)[O-])c1)C(=O)N[C@@H](C)C(=O)N(C)[C@@H](CC(C)C)C(=O)N=[N+]=[N-], 21-membered ring, 1.35 h): 20%

CCCCC(C)CCC(=O)N[C@@H](CCN)C(=O)N[C@H](C(=O)N[C@@H](CCN)C(=O)N[C@H]1CCNC(=O)[C@H]([C@@H](C)O)NC(=O)[C@H](CCN)NC(=O)[C@H](CCN)NC(=O)[C@H](CC(C)C)NC(=O)[C@@H](CC(C)C)NC(=O)[C@H](CCN)NC1=O)[C@@H](C)O (some centres unmarked)
ring closure, conversion by HPLC (from CCCCC(C)CCC(=O)N[C@@H](CCN)C(=O)N[C@H](C(=O)N[C@@H](CCN)C(=O)N[C@@H](CCN)C(=O)N[C@@H](CCN)C(=O)N[C@H](CC(C)C)C(=O)N[C@@H](CC(C)C)C(=O)N[C@@H](CCN)C(=O)N[C@@H](CCN)C(=O)N[C@H](C(=O)N=[N+]=[N-])[C@@H](C)O)[C@@H](C)O, 23-membered ring, 0.017 h): 56%

C[C@@H]1NC(=O)[C@H](C)NC(=O)[C@@H]2CCCN2C(=O)[C@H](C)NC(=O)[C@H](C)NC(=O)[C@@H]2CCCN2C(=O)[C@H](C)NC1=O [H-Ala-Pro-Ala-Ala-Pro-Ala-Ala-N3]
ring closure, conversion by HPLC (from C[C@H](N)C(=O)N1CCC[C@H]1C(=O)N[C@@H](C)C(=O)N[C@@H](C)C(=O)N1CCC[C@H]1C(=O)N[C@@H](C)C(=O)N[C@@H](C)C(=O)N=[N+]=[N-], 21-membered ring, 0.68 h): 80%

C=CC[C@@H]1NC(=O)[C@H](CC(C)C)NC(=O)[C@H](CC(C)C)N(C)C(=O)[C@H](C)NC(=O)[C@H](Cc2ccc(O)c([N+](=O)[O-])c2)NC(=O)[C@H](CC(C)C)N(C)C(=O)[C@H](Cc2cn(C)c3ccccc23)NC1=O [H-allylGly-Trp(1-Me)-N-Me-Leu-Tyr(3-NO2)-Ala-N-Me-Leu-Leu-N3]
ring closure, conversion by HPLC (from C=CC[C@H](N)C(=O)N[C@@H](Cc1cn(C)c2ccccc12)C(=O)N(C)[C@@H](CC(C)C)C(=O)N[C@@H](Cc1ccc(O)c([N+](=O)[O-])c1)C(=O)N[C@@H](C)C(=O)N(C)[C@@H](CC(C)C)C(=O)N[C@@H](CC(C)C)C(=O)N=[N+]=[N-], 21-membered ring, 0.35 h): 59%

CSCC[C@@H]1NC(=O)[C@H](C(C)C)NC(=O)[C@H](CC(C)C)NC(=O)CNC(=O)[C@@H]2CCCN2C(=O)[C@H](C(C)C)NC(=O)CNC(=O)[C@H](Cc2ccccc2)NC1=O [H-Phe-Gly-Val-Pro-Gly-Leu-Val-Met-N3]
ring closure, conversion by HPLC (from CSCC[C@H](NC(=O)[C@@H](NC(=O)[C@H](CC(C)C)NC(=O)CNC(=O)[C@@H]1CCCN1C(=O)[C@@H](NC(=O)CNC(=O)[C@@H](N)Cc1ccccc1)C(C)C)C(C)C)C(=O)N=[N+]=[N-], 24-membered ring, 0.35 h): 38%

CC(C)C[C@H]1C(=O)N[C@@H](C)C(=O)N[C@@H](C)C(=O)N[C@@H](C)C(=O)N(C)[C@@H](CC(C)C)C(=O)N[C@@H](C)C(=O)N[C@@H](C)C(=O)N1C [H-Ala-N-Me-Leu-Ala-Ala-N-Me-Leu-Ala-Ala-N3]
ring closure, conversion by HPLC (from CC(C)C[C@@H](C(=O)N[C@@H](C)C(=O)N[C@@H](C)C(=O)N(C)[C@@H](CC(C)C)C(=O)N[C@@H](C)C(=O)N[C@@H](C)C(=O)N=[N+]=[N-])N(C)C(=O)[C@H](C)N, 21-membered ring, 0.35 h): 89%

CC(C)C[C@@H]1NC(=O)[C@H](CCCN)NC(=O)[C@H](C(C)C)NC(=O)[C@@H]2CCCN2C(=O)[C@@H](Cc2ccccc2)NC(=O)[C@H](CC(C)C)NC(=O)[C@H](CCCN)NC(=O)[C@H](C(C)C)NC(=O)[C@@H]2CCCN2C(=O)[C@@H](Cc2ccccc2)NC1=O [H-D-Phe-Pro-Val-Orn-Leu-D-Phe-Pro-Val-Orn-Leu-N3]
ring closure, conversion by HPLC (from CC(C)C[C@H](NC(=O)[C@H](CCCN)NC(=O)[C@@H](NC(=O)[C@@H]1CCCN1C(=O)[C@@H](Cc1ccccc1)NC(=O)[C@H](CC(C)C)NC(=O)[C@H](CCCN)NC(=O)[C@@H](NC(=O)[C@@H]1CCCN1C(=O)[C@H](N)Cc1ccccc1)C(C)C)C(C)C)C(=O)N=[N+]=[N-], 30-membered ring, 0.33 h): 92%

From publication PMC11191687
